Earlier results as cited in patent US7842686B2, “CGRP receptor antagonists” (Vertex Pharmaceuticals Incorporated, priority 2006, dated 2010).
No end group written: not given here.

Columns and labels:
[1] = tested on: acute attacks of migraine; settings: clinical trials (Olesen et al. 2004)
facial blood flow [2] = settings: marmoset, electrical stimulation of the trigeminal ganglion
middle meningeal artery = settings: rats, electrical stimulation of the dura mater, prior administration
facial blood flow [3] = settings: rat, trigeminal ganglion stimulation

Molecule | efficacy in acute attacks of migraine [1] | effect on increase in facial blood flow (facial blood flow [2]) | effect on increase of middle meningeal artery diameter (middle meningeal artery) | effect on increase of facial blood flow (facial blood flow [3])
NCCCC[C@H](NC(=O)[C@@H](Cc1cc(Br)c(O)c(Br)c1)NC(=O)N1CCC(N2Cc3ccccc3NC2=O)CC1)C(=O)N1CCN(c2ccncc2)CC1 [BIBN4096BS] | effective in treating acute attacks of migraine | could be blocked | – | –
CGRP(8-37): a peptide CGRP antagonist (VTHRLAGLLSRSGGVVKNNFVPTNVGSKAF-NH2; ends and bridges not checked; UniProt P06881 90-119, looked up, fragment) | – | – | blocked | inhibited
